Results from patent EP0162330B1, “Use of sterolins and spiroketalins in the production of medicaments for the treatment of psoriasis” (Roecar Holdings (Netherlands Antilles) N.V., priority 1984, dated 1985).
Values belong to the compound of their own block, whether it stands above or below them.

What was measured:
[1] = system: 12-lipoxygenase; assay: In vitro lipoxygenase inhibition in leucocyte preparations, arachidonic acid products by radio thin-layer chromatography; format: cell-based, human
Experimental: (§1) Washed and resuspended platelets or leucocytes were incubated in one test with a saturated solution of β-sitosterol β-D-glucoside (23,5 mg/10ml ethanol) and in a second test with a 10 times oversaturated solution with addition of 0.25 µCi arachidonic acid for 5 minutes. The test mixtures were then acidified and extracted with ethyl acetate. Separation of the reaction products was performed by radio-thinlayer-chromatography.
(§2) The number of leukocytes in test 1 was 2000 and in test 2, 1600 and the number of platelets in the platelets test 1 was 140 000 and in test 2 it was 240 000.
(§3) After incubation with the test substance a significant inhibition of the lipoxygenase products can be shown when using platelets leading to a near complete synthesis inhibition and accumulation of non-metabolized arachidonic acid. As far as leucocytes are concerned, there is a dosage-dependant inhibitory effect of the lipoxygenase whereby the changes are mainly based on 12-hydroxyeicoscatetraenoic acid (12-HETE) and 12-HPETE while lesser changes are observed for HHT.

[2] = target: T1, 12-lipoxygenase (Homo sapiens, UniProt P18054); assay: In vitro lipoxygenase inhibition in platelets, arachidonic acid products by radio thin-layer chromatography; format: cell-based; conditions: 120' saturated solution
T1 construct: endogenous in cells; host or cells: washed human platelets
T1 sequence (P18054 1-663): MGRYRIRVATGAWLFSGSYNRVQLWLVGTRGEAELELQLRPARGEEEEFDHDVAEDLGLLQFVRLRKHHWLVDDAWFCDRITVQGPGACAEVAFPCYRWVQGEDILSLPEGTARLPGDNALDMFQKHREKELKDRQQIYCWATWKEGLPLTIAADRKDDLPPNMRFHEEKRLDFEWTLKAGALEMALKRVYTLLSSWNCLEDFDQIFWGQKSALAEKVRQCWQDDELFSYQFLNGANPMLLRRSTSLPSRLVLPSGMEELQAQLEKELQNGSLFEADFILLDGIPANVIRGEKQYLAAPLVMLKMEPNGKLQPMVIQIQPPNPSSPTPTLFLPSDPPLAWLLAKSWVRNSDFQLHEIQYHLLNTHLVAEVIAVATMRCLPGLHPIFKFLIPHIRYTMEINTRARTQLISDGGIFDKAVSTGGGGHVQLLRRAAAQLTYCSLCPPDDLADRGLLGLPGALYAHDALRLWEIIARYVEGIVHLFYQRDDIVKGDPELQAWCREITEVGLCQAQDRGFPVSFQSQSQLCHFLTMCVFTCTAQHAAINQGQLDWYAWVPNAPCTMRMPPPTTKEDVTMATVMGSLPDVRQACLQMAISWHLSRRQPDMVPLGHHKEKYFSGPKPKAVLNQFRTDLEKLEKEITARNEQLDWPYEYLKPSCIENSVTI
Experimental: as §1, §2, §3

[3] = system: antigen-induced SRS-A (leukotriene) mediated bronchoconstriction; assay: In vivo antigen-induced SRS-A (leukotriene) mediated bronchoconstriction (method of Anderson et al); design: species or system guinea pigs; conditions: n=8
Source text: The effect of β-Sitosterol-β-D-glucoside was investigated on antigen-induced SRS-A (leukotriene) mediated bronchoconstriction according to the method of Anderson et al (Br. J. Pharmacol. 78,67-74, 1983). Twenty-eight to thirty-three days after the single ovalbumine dose the guinea pigs were anaesthetised and surgically prepared for intravenous administration of the test compounds and measuring the ventilatory pressure. Prior to the antigen (ovalbumine) challenge the animals were adequately pretreated with indomethacin, pyrilamine and propanolol to eliminate the effect of other interfering mediators released during the anaphylactic reaction. The test substance was administered 1 minute before the ovalbumine challenge.
The vehicle (50% DMSO in water) served as a control. Phenindone was used as the standard reference substance.

[4] = target: T2, 12-lipoxygenase of the platelets (Homo sapiens, UniProt P18054); assay: Influence upon lipoxygenase: thrombin-stimulated washed human platelets (method of Schroer et al); format: cell-based; conditions: washed human platelets stimulated with thrombin (0.6 iU/ml)
T2 construct: endogenous in cells; host or cells: washed human platelets
T2 sequence (P18054 1-663): T1 sequence (P18054 1-663)
Experimental: The tests were performed according to the method devised by Schroer et al, Naunyn-Schmiedeberg's Arch. Pharmak. 313, 69 (1980). According to this method washed human platelets are stimulated with thrombin (0.6 iU/ml). Arachidonic acid released from the platelets upon stimulation is transformed by the 12-lipoxygenase of the platelets into 12-hydro-peroxy-eicosatetraenoic acid (12-HPETE).

[5] = 10 mg/kg i.v., 1 minute after challenge

12 HETE 12 HPETE in % ([2]; test 1, platelets (140 000), normal 39.8): 3.8%
12 HETE 12 HPETE in % ([2]; test 2, platelets (240 000), normal 35.0): 11.9%
Compound: CC[C@H](CC[C@@H](C)[C@H]1CC[C@H]2[C@@H]3CC=C4C[C@@H](O[C@@H]5O[C@H](CO)[C@@H](O)[C@H](O)[C@H]5O)CC[C@]4(C)[C@H]3CC[C@]12C)C(C)C [β-Sitosterol- β-D-glucoside, β-sitosterol β-D-glucoside]
12 HETE 12 HPETE in % ([1]; test 1, leukocytes (2000), 30' oversaturated (10 times) solution, normal 50.2): 12.4%
12 HETE 12 HPETE in % ([1]; test 1, leukocytes (2000), 30' saturated solution (23,5 mg/10ml ethanol), normal 50.2): 35.9%
12 HETE 12 HPETE in % ([1]; test 1, leukocytes (2000), 120' saturated solution, normal 50.2): 13.4%
12 HETE 12 HPETE in % ([1]; test 2, leukocytes (1600), 30' oversaturated (10 times) solution, normal 48.0): 22.7%
12 HETE 12 HPETE in % ([1]; test 2, leukocytes (1600), 30' saturated solution, normal 48.0): 37.0%
12 HETE 12 HPETE in % ([1]; test 2, leukocytes (1600), 120' saturated solution, normal 48.0): 2.7%
MEAN CHANGE (AS % OF MAX ±S.E.M.) IN VENTILATION PRESSURE AFTER OVALBUMIN ADMINISTRATION ([3]; 1 mg/kg i.v., 1 minute after challenge): 5.8 ±4.5 % OF MAX
MEAN CHANGE (AS % OF MAX ±S.E.M.) IN VENTILATION PRESSURE AFTER OVALBUMIN ADMINISTRATION [3, 5]: 1.8 ±2.8 % OF MAX
MEAN CHANGE (AS % OF MAX ±S.E.M.) IN VENTILATION PRESSURE AFTER OVALBUMIN ADMINISTRATION ([3]; 10 mg/kg i.v., 2 minutes after challenge): 31.0 ±9.8 % OF MAX

inhibition ([4]; 5 µM/ml): 13%
inhibition ([4]; 10 µM/ml): 31%
inhibition ([4]; 50 uM/ml): 60%
Compound: Diosgeninglucoside

Compound: O=C1CCN(c2ccccc2)N1 [Phenidone, reference compound]
MEAN CHANGE (AS % OF MAX ±S.E.M.) IN VENTILATION PRESSURE AFTER OVALBUMIN ADMINISTRATION [3, 5]: 3.1 ±1.0 % OF MAX

inhibition at 10 µM ([4]; 10 µM/ml): 97%
Compound: CCCCCC#CCC#CCC#CCC#CCCCC(=O)O [ETYA, 5,8,11,14-eicosatetraynoic acid, reference compound]
